Source: ChEMBL document CHEMBL3885861, “Open TG-GATES”

Species on record: Rattus norvegicus
Assay: Open TG-GATES - Regimen: Single
Assay type: toxicity, organism-based, Sprague-Dawley
Design: regimen Single, gender Male, age 6 weeks
Conditions: in vivo, po, route gavage; for APTT / Bas / Eos / Fbg / Hb / Ht / Lym / MCH / MCHC / MCV / Mono / Neu / PT / Plat / RBC / Ret / WBC: tissue Blood; for KIDNEY_L / KIDNEY_R / KIDNEY_TOTAL: tissue Kidney; for LIVER: tissue Liver; for A/G / ALP / ALT / AST / BUN / CRE / Ca / Cl / DBIL / GLC / IP / K / LDH / Na / PL / RALB / TBIL / TC / TG / TP / gamma-GTP: tissue Plasma
[1] = 80 mg/kg, 3 h, dose level Middle
[2] = 80 mg/kg, 6 h, dose level Middle
[3] = 80 mg/kg, 9 h, dose level Middle
[4] = 80 mg/kg, 24 h, dose level Middle
[5] = 250 mg/kg, 3 h, dose level High
[6] = 250 mg/kg, 6 h, dose level High
[7] = 250 mg/kg, 9 h, dose level High
[8] = 250 mg/kg, 24 h, dose level High

## CCSCC[C@H](N)C(=O)O [ETHIONINE]
[1]
  TERMINAL_BW: 217.5 g
  APTT: 18.6 s
  Bas: 0%
  Eos: 1%
  Fbg: 209 mg/dL
  Hb: 13.4 g/dL
  Ht: 39.6%
  Lym: 77.8%
  MCH: 21.3 pg
  MCHC: 33.9%
  MCV: 62.7 fL
  Mono: 2.8%
  Neu: 17.6%
  PT: 12.4 s
  Plat: 119.9 x10_4/uL
  RBC: 631.4 x10_4/ul
  Ret: 6.8%
  WBC: 71.3 x10_2/uL
  KIDNEY_L: 1 g
  KIDNEY_R: 1 g
  KIDNEY_TOTAL: 1.9 g
  LIVER: 9.9 g
  A/G: 1.6
  ALP: 765.4 IU/L
  ALT: 33 IU/L
  AST: 62.8 IU/L
  BUN: 10.4 mg/dL
  CRE: 0.4 mg/dL
  Ca: 10.3 mg/dL
  Cl: 101.4 meq/L
  DBIL: 0.052 mg/dL
  GLC: 207.4 mg/dL
  IP: 10 mg/dL
  K: 3.8 meq/L
  LDH: 171.6 IU/L
  Na: 140.4 meq/L
  PL: 120.8 mg/dL
  RALB: 3.3 g/dL
  TBIL: 0.1 mg/dL
  TC: 68.2 mg/dL
  TG: 43.8 mg/dL
  TP: 5.4 g/dL
  gamma-GTP: 1.4 IU/L
[2]
  TERMINAL_BW: 212.9 g
  APTT: 18.2 s
  Bas: 0%
  Eos: 1%
  Fbg: 215 mg/dL
  Hb: 13.5 g/dL
  Ht: 39.6%
  Lym: 79.4%
  MCH: 21.4 pg
  MCHC: 34.1%
  MCV: 62.7 fL
  Mono: 2.2%
  Neu: 16.6%
  PT: 12.9 s
  Plat: 116.1 x10_4/uL
  RBC: 632 x10_4/ul
  Ret: 6.3%
  WBC: 88 x10_2/uL
  KIDNEY_L: 1 g
  KIDNEY_R: 1 g
  KIDNEY_TOTAL: 1.9 g
  LIVER: 9.2 g
  A/G: 1.7
  ALP: 877.2 IU/L
  ALT: 35.6 IU/L
  AST: 65.2 IU/L
  BUN: 10.6 mg/dL
  CRE: 0.3 mg/dL
  Ca: 10.3 mg/dL
  Cl: 102.6 meq/L
  DBIL: 0.058 mg/dL
  GLC: 207.4 mg/dL
  IP: 9.4 mg/dL
  K: 3.7 meq/L
  LDH: 191.2 IU/L
  Na: 140.4 meq/L
  PL: 116.6 mg/dL
  RALB: 3.3 g/dL
  TBIL: 0.1 mg/dL
  TC: 58.8 mg/dL
  TG: 54.2 mg/dL
  TP: 5.4 g/dL
  gamma-GTP: 1 IU/L
[3]
  TERMINAL_BW: 215.1 g
  APTT: 19.5 s
  Bas: 0%
  Eos: 1%
  Fbg: 205.4 mg/dL
  Hb: 13.3 g/dL
  Ht: 39%
  Lym: 76%
  MCH: 21 pg
  MCHC: 34.1%
  MCV: 61.4 fL
  Mono: 2.4%
  Neu: 19.4%
  PT: 13.1 s
  Plat: 117 x10_4/uL
  RBC: 634.6 x10_4/ul
  Ret: 6.7%
  WBC: 77.6 x10_2/uL
  KIDNEY_L: 1 g
  KIDNEY_R: 1 g
  KIDNEY_TOTAL: 1.9 g
  LIVER: 9.1 g
  A/G: 1.5
  ALP: 727 IU/L
  ALT: 28.8 IU/L
  AST: 54.8 IU/L
  BUN: 10.6 mg/dL
  CRE: 0.3 mg/dL
  Ca: 10.4 mg/dL
  Cl: 101.4 meq/L
  DBIL: 0.086 mg/dL
  GLC: 197.6 mg/dL
  IP: 9.7 mg/dL
  K: 3.6 meq/L
  LDH: 174.2 IU/L
  Na: 140.6 meq/L
  PL: 133 mg/dL
  RALB: 3.4 g/dL
  TBIL: 0.1 mg/dL
  TC: 70.4 mg/dL
  TG: 95.6 mg/dL
  TP: 5.6 g/dL
  gamma-GTP: 1.4 IU/L
[4]
  TERMINAL_BW: 227.7 g
  APTT: 20.7 s
  Bas: 0%
  Eos: 1%
  Fbg: 224 mg/dL
  Hb: 13.7 g/dL
  Ht: 40.7%
  Lym: 79.8%
  MCH: 21.1 pg
  MCHC: 33.7%
  MCV: 62.7 fL
  Mono: 3.6%
  Neu: 14%
  PT: 13.6 s
  Plat: 122.5 x10_4/uL
  RBC: 649.8 x10_4/ul
  Ret: 6.5%
  WBC: 97.9 x10_2/uL
  KIDNEY_L: 1 g
  KIDNEY_R: 1 g
  KIDNEY_TOTAL: 2.1 g
  LIVER: 11.3 g
  A/G: 1.5
  ALP: 1010.2 IU/L
  ALT: 37 IU/L
  AST: 69 IU/L
  BUN: 13.4 mg/dL
  CRE: 0.4 mg/dL
  Ca: 10.8 mg/dL
  Cl: 101.2 meq/L
  DBIL: 0.09 mg/dL
  GLC: 215.8 mg/dL
  IP: 8.8 mg/dL
  K: 3.8 meq/L
  LDH: 210.6 IU/L
  Na: 139.4 meq/L
  PL: 129.6 mg/dL
  RALB: 3.5 g/dL
  TBIL: 0.1 mg/dL
  TC: 57.6 mg/dL
  TG: 98.2 mg/dL
  TP: 5.8 g/dL
  gamma-GTP: 1 IU/L
[5]
  TERMINAL_BW: 215.1 g
  APTT: 18.5 s
  Bas: 0%
  Eos: 1%
  Fbg: 205.8 mg/dL
  Hb: 13.6 g/dL
  Ht: 40%
  Lym: 74%
  MCH: 21.4 pg
  MCHC: 34%
  MCV: 62.9 fL
  Mono: 2.6%
  Neu: 20.6%
  PT: 12.5 s
  Plat: 117.7 x10_4/uL
  RBC: 635.6 x10_4/ul
  Ret: 7%
  WBC: 90.5 x10_2/uL
  KIDNEY_L: 1 g
  KIDNEY_R: 1 g
  KIDNEY_TOTAL: 2 g
  LIVER: 9.7 g
  A/G: 1.4
  ALP: 1004.6 IU/L
  ALT: 37.6 IU/L
  AST: 68 IU/L
  BUN: 10.6 mg/dL
  CRE: 0.4 mg/dL
  Ca: 10.3 mg/dL
  Cl: 100.8 meq/L
  DBIL: 0.054 mg/dL
  GLC: 210.4 mg/dL
  IP: 9.8 mg/dL
  K: 3.8 meq/L
  LDH: 183.6 IU/L
  Na: 139.6 meq/L
  PL: 127.8 mg/dL
  RALB: 3.2 g/dL
  TBIL: 0.1 mg/dL
  TC: 71 mg/dL
  TG: 43.4 mg/dL
  TP: 5.4 g/dL
  gamma-GTP: 1.2 IU/L
[6]
  TERMINAL_BW: 215.3 g
  APTT: 19.4 s
  Bas: 0%
  Eos: 1%
  Fbg: 203.2 mg/dL
  Hb: 13 g/dL
  Ht: 38.2%
  Lym: 76%
  MCH: 21.4 pg
  MCHC: 34.1%
  MCV: 62.6 fL
  Mono: 2.8%
  Neu: 19.2%
  PT: 13.1 s
  Plat: 122.2 x10_4/uL
  RBC: 610.4 x10_4/ul
  Ret: 7.1%
  WBC: 98.9 x10_2/uL
  KIDNEY_L: 1 g
  KIDNEY_R: 1 g
  KIDNEY_TOTAL: 1.9 g
  LIVER: 9.2 g
  A/G: 1.3
  ALP: 809.2 IU/L
  ALT: 33.8 IU/L
  AST: 64.2 IU/L
  BUN: 10.4 mg/dL
  CRE: 0.4 mg/dL
  Ca: 10.2 mg/dL
  Cl: 102 meq/L
  DBIL: 0.058 mg/dL
  GLC: 198.8 mg/dL
  IP: 9.6 mg/dL
  K: 3.9 meq/L
  LDH: 213.8 IU/L
  Na: 139 meq/L
  PL: 116.6 mg/dL
  RALB: 3 g/dL
  TBIL: 0.1 mg/dL
  TC: 64.6 mg/dL
  TG: 44.4 mg/dL
  TP: 5.3 g/dL
  gamma-GTP: 1.6 IU/L
[7]
  TERMINAL_BW: 212.6 g
  APTT: 20.5 s
  Bas: 0%
  Eos: 1%
  Fbg: 214.2 mg/dL
  Hb: 13.3 g/dL
  Ht: 39.1%
  Lym: 73.6%
  MCH: 21.2 pg
  MCHC: 34.2%
  MCV: 62 fL
  Mono: 3.2%
  Neu: 21.2%
  PT: 13.3 s
  Plat: 127.2 x10_4/uL
  RBC: 630.2 x10_4/ul
  Ret: 7%
  WBC: 72.8 x10_2/uL
  KIDNEY_L: 1 g
  KIDNEY_R: 1 g
  KIDNEY_TOTAL: 2 g
  LIVER: 9 g
  A/G: 1.6
  ALP: 774 IU/L
  ALT: 29.8 IU/L
  AST: 58.4 IU/L
  BUN: 8 mg/dL
  CRE: 0.3 mg/dL
  Ca: 10.4 mg/dL
  Cl: 101.4 meq/L
  DBIL: 0.072 mg/dL
  GLC: 199 mg/dL
  IP: 9.3 mg/dL
  K: 3.6 meq/L
  LDH: 195 IU/L
  Na: 139.6 meq/L
  PL: 111.2 mg/dL
  RALB: 3.4 g/dL
  TBIL: 0.1 mg/dL
  TC: 57.2 mg/dL
  TG: 77.4 mg/dL
  TP: 5.6 g/dL
  gamma-GTP: 1.2 IU/L
[8]
  TERMINAL_BW: 221.6 g
  APTT: 22 s
  Bas: 0%
  Eos: 1%
  Fbg: 210.4 mg/dL
  Hb: 13.9 g/dL
  Ht: 41%
  Lym: 74.4%
  MCH: 21.3 pg
  MCHC: 34%
  MCV: 62.5 fL
  Mono: 5.8%
  Neu: 16.8%
  PT: 14.4 s
  Plat: 116 x10_4/uL
  RBC: 655 x10_4/ul
  Ret: 6.3%
  WBC: 94.1 x10_2/uL
  KIDNEY_L: 1 g
  KIDNEY_R: 1 g
  KIDNEY_TOTAL: 2 g
  LIVER: 10.6 g
  A/G: 1.6
  ALP: 988 IU/L
  ALT: 39 IU/L
  AST: 74.4 IU/L
  BUN: 16 mg/dL
  CRE: 0.4 mg/dL
  Ca: 10.6 mg/dL
  Cl: 101.4 meq/L
  DBIL: 0.1 mg/dL
  GLC: 198.2 mg/dL
  IP: 8.8 mg/dL
  K: 3.7 meq/L
  LDH: 211 IU/L
  Na: 140 meq/L
  PL: 122.6 mg/dL
  RALB: 3.4 g/dL
  TBIL: 0.2 mg/dL
  TC: 47.2 mg/dL
  TG: 144 mg/dL
  TP: 5.6 g/dL
  gamma-GTP: 1.2 IU/L
